Molecular target: Factor D (Homo sapiens (Human), UniProt P00746)
Assay: Factor D esterolytic assay
Assay type: biochemical
Details: Z-Lys-SBzl substrate, 100 mM HEPES, 500 mM NaCl, pH 7.5, 10% DMSO; tested a minimum of three times; read-out: Measured Ki (IC50) Value for Compounds: IC50
How it was run: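 Buffer was 100 mM HEPES, 500 mM NaCl, pH 7.5 with 10% DMSO. Compound and Factor D were combined, then Z-Lys-SBzl (1.29 mM) was added either at once or following room-temperature incubation. Rates came from DTNB colour at 405 nm minus 690 nm over 600 s, with percent inhibition giving IC50 over at least three tests.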

Sequence of Factor D (P00746 26-253): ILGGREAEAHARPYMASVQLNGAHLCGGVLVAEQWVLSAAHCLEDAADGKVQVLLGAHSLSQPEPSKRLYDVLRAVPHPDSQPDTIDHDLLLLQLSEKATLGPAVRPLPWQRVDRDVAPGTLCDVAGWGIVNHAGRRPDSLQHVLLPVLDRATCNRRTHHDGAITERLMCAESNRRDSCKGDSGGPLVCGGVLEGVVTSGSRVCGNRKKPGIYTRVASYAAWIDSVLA

| Compound | IC50 [nM] |
| --- | --- |
| CN(Cc1cc(-c2cccc(CN)c2)cc2c(COc3ccccc3CC(=O)O)coc12)C1CC1 [Compound 261e, 2-(2-((5-(3-(aminomethyl)phenyl)-7-((cyclopropyl(methyl)amino)methyl)benzofuran-3-yl)methoxy)phenyl)acetic acid] | < 1000 |
| NCc1cccc(-c2cc(C(F)F)c3occ(COc4ccccc4CC(=O)O)c3c2)c1 [Compound 262e, 2-(2-((5-(3-(aminomethyl)phenyl)-7-(difluoromethyl)benzofuran-3-yl)methoxy)phenyl)acetic acid] | < 1000 |
| CN(Cc1cc(-c2cccc(CN)c2)cc2c(COc3ccccc3CC(=O)O)coc12)CC1CC1 [Compound 263e, 2-(2-((5-(3-(aminomethyl)phenyl)-7-(((cyclopropylmethyl)(methyl)amino)methyl)benzofuran-3-yl)methoxy)phenyl)acetic acid] | < 1000 |
| NCc1cccc(-c2ccc3c(c2)c(COc2ccccc2CC(=O)O)nn3-c2cccnc2)c1 [Compound 264c, 2-(2-((5-(3-(aminomethyl)phenyl)-1-(pyridin-3-yl)-1H-indazol-3-yl)methoxy)phenyl)acetic acid] | < 1000 |
| NCc1cccc(-c2ccc3c(c2)c(COc2ccccc2CC(=O)O)nn3-c2ccncc2)c1 [Compound 265c, 2-(2-((5-(3-(aminomethyl)phenyl)-1-(pyridin-4-yl)-1H-indazol-3-yl)methoxy)phenyl)acetic acid] | < 1000 |
| CC(C)n1nc(COc2ccccc2CC(=O)O)c2cc(-c3ccnc(CN)c3)ccc21 [Compound 266b, 2-(2-((5-(2-(aminomethyl)pyridin-4-yl)-1-isopropyl-1H-indazol-3-yl)methoxy)phenyl)acetic acid] | < 1000 |
| CC(C)n1nc(COc2ccccc2CC(=O)O)c2cc(-c3cccc([C@H](N)CO)c3)ccc21 [Compound 267b, (S)-2-(2-((5-(3-(1-amino-2-hydroxyethyl)phenyl)-1-isopropyl-1H-indazol-3-yl)methoxy)phenyl)acetic acid] | < 1000 |
| Cc1nn(C)c(C)c1-c1cc(-c2cccc(CN)c2)cc2c(COc3ccccc3CC(=O)O)coc12 [Compound 268c, 2-(2-((5-(3-(aminomethyl)phenyl)-7-(1,3,5-trimethyl-1H-pyrazol-4-yl)benzofuran-3-yl)methoxy)phenyl)acetic acid] | < 1000 |
| COc1cc(-c2cccc(CN)c2)cc2c(COc3cc(C(F)(F)F)ccc3CC(=O)O)coc12 [Compound 269c, 2-(2-((5-(3-(aminomethyl)phenyl)-7-methoxybenzofuran-3-yl)methoxy)-4-(trifluoromethyl)phenyl)acetic acid] | < 1000 |
| COc1ccc(CC(=O)O)c(OCc2coc3c(C(F)(F)F)cc(-c4cccc(CN)c4)cc23)c1 [Compound 270c, 2-(2-((5-(3-(aminomethyl)phenyl)-7-(trifluoromethyl)benzofuran-3-yl)methoxy)-4-methoxyphenyl)acetic acid] | < 1000 |
| CC(C)n1nc(COc2ccccc2CC(=O)O)c2cc(-c3ccnc(CN)c3F)ccc21 [Compound 271c, 2-(2-((5-(2-(aminomethyl)-3-fluoropyridin-4-yl)-1-isopropyl-1H-indazol-3-yl)methoxy)phenyl)acetic acid] | < 1000 |
| Cc1cc2c(o1)c(-c1cccc(CN)c1)cc1c(COc3ccccc3CC(=O)O)c(C)oc12 [Compound 272n, 2-(2-((5-(3-(aminomethyl)phenyl)-2,7-dimethylbenzo[1,2-b:3,4-b′]difuran-3-yl)methoxy)phenyl)acetic acid] | < 1000 |
| COc1ccc(CC(=O)O)c(OCc2c(C)oc3c(C4CC4)cc(-c4cccc(CN)c4)cc23)c1 [Compound 273j, 2-(2-((5-(3-(aminomethyl)phenyl)-7-cyclopropyl-2-methylbenzofuran-3-yl)methoxy)-4-methoxyphenyl)acetic acid] | < 1000 |
| COc1ccc(CC(=O)O)c(OCc2c(C)oc3c(NCC4CC4)cc(-c4cccc(CN)c4)cc23)c1 [Compound 274c, 2-(2-((5-(3-(aminomethyl)phenyl)-7-((cyclopropylmethyl)amino)-2-methylbenzofuran-3-yl)methoxy)-4-methoxyphenyl)acetic acid] | < 1000 |
| NCc1cccc(-c2cc(NC[C@@H]3CCCO3)c3occ(COc4ccccc4CC(=O)O)c3c2)c1 [Compound 275d, (S)-2-(2-((5-(3-(aminomethyl)phenyl)-7-(((tetrahydrofuran-2-yl)methyl)amino)benzofuran-3-yl)methoxy)phenyl)acetic acid] | < 1000 |
| COc1ccc(CC(=O)O)c(OCc2coc3c(NCC4CC4)cc(-c4cccc(CN)c4)cc23)c1 [Compound 276e, 2-(2-((5-(3-(aminomethyl)phenyl)-7-((cyclopropylmethyl)amino)benzofuran-3-yl)methoxy)-4-methoxyphenyl)acetic acid] | < 1000 |
| COc1ccc(CC(=O)O)c(OCc2coc3c(NCC4CCCC4)cc(-c4cccc(CN)c4)cc23)c1 [Compound 277c, 2-(2-((5-(3-(aminomethyl)phenyl)-7-((cyclopentylmethyl)amino)benzofuran-3-yl)methoxy)-4-methoxyphenyl)acetic acid] | < 1000 |
| COc1ccc(CC(=O)O)c(OCc2coc3c(NC(C)C)cc(-c4cccc(CN)c4)cc23)c1 [Compound 278c, 2-(2-((5-(3-(aminomethyl)phenyl)-7-(isopropylamino)benzofuran-3-yl)methoxy)-4-methoxyphenyl)acetic acid] | < 1000 |
| COc1ccc(CC(=O)O)c(OCc2coc3c(NCC(C)C)cc(-c4cccc(CN)c4)cc23)c1 [Compound 279c, 2-(2-((5-(3-(aminomethyl)phenyl)-7-(isobutylamino)benzofuran-3-yl)methoxy)-4-methoxyphenyl)acetic acid] | < 1000 |
| CNc1cc(-c2cccc(CN)c2)cc2c(COc3cc(OC)ccc3CC(=O)O)coc12 [Compound 280c, 2-(2-((5-(3-(aminomethyl)phenyl)-7-(methylamino)benzofuran-3-yl)methoxy)-4-methoxyphenyl)acetic acid] | < 1000 |
| COc1ccc(CC(=O)O)c(OCc2c(C)oc3ccc(-c4ccnc(CN)c4F)cc23)c1 [Compound 281d, 2-(2-((5-(2-(aminomethyl)-3-fluoropyridin-4-yl)-2-methylbenzofuran-3-yl)methoxy)-4-methoxyphenyl)acetic acid] | < 1000 |
| NCc1cccc(-c2cc3c(COc4ccccc4CC(=O)O)cccc3o2)c1 [Compound 282f, 2-(2-((2-(3-(aminomethyl)phenyl)benzofuran-4-yl)methoxy)phenyl)acetic acid] | < 1000 |

Results, then the molecule that gave them:

| IC50 [nM] | Compound |
| --- | --- |
| < 1000 | NCc1cccc(-c2cc(OCCC3CCOCC3)c3occ(COc4ccccc4CC(=O)O)c3c2)c1 [Compound 249f, 2-(2-((5-(3-(aminomethyl)phenyl)-7-(2-(tetrahydro-2H-pyran-4-yl)ethoxy)benzofuran-3-yl)methoxy)phenyl)acetic acid] |
| < 1000 | NCc1cccc(-c2cc(OCCN3CCOCC3)c3occ(COc4ccccc4CC(=O)O)c3c2)c1 [Compound 250f, 2-(2-((5-(3-(aminomethyl)phenyl)-7-(2-morpholinoethoxy)benzofuran-3-yl)methoxy)phenyl)acetic acid] |
| < 1000 | COc1ccc(CC(=O)O)c(OCc2coc3c(OC)cc(-c4cccc(CN)c4)cc23)c1 [Compound 251c, 2-(2-((5-(3-(aminomethyl)phenyl)-7-methoxybenzofuran-3-yl)methoxy)-4-methoxyphenyl)acetic acid] |
| < 1000 | COc1cc(-c2cccc(CN)c2)cc2c(COc3cc(C)ccc3CC(=O)O)coc12 [Compound 252c, 2-(2-((5-(3-(aminomethyl)phenyl)-7-methoxybenzofuran-3-yl)methoxy)-4-methylphenyl)acetic acid] |
| < 1000 | COc1ccc(CC(=O)O)c(OCc2coc3c(C)cc(-c4cccc(CN)c4)cc23)c1 [Compound 253c, 2-(2-((5-(3-(aminomethyl)phenyl)-7-methylbenzofuran-3-yl)methoxy)-4-methoxyphenyl)acetic acid] |
| < 1000 | Cc1ccc(CC(=O)O)c(OCc2nn(C(C)C)c3ccc(-c4cccc(CN)c4)cc23)c1 [Compound 254c, 2-(2-((5-(3-(aminomethyl)phenyl)-1-isopropyl-1H-indazol-3-yl)methoxy)-4-methylphenyl)acetic acid] |
| < 1000 | COc1ccc(CC(=O)O)c(OCc2c3cc(-c4cccc(CN)c4)ccc3nn2C(C)C)c1 [Compound 255c, 2-(2-((5-(3-(aminomethyl)phenyl)-2-isopropyl-2H-indazol-3-yl)methoxy)-4-methoxyphenyl)acetic acid] |
| < 1000 | Cc1ccc(CC(=O)O)c(OCc2c3cc(-c4cccc(CN)c4)ccc3nn2C(C)C)c1 [Compound 256c, 2-(2-((5-(3-(aminomethyl)phenyl)-2-isopropyl-2H-indazol-3-yl)methoxy)-4-methylphenyl)acetic acid] |
| < 1000 | NCc1cccc(-c2cc(C(O)C(F)(F)F)c3occ(COc4ccccc4CC(=O)O)c3c2)c1 (stereo not shown) [Compound 257h, 2-(2-((5-(3-(aminomethyl)phenyl)-7-(2,2,2-trifluoro-1-hydroxyethyl)benzofuran-3-yl)methoxy)phenyl)acetic acid] |
| < 1000 | NCc1cccc(-c2ccc3c(c2)c(COc2ccccc2CC(=O)O)nn3CC2CC2)c1 [Compound 258f, 2-(2-((5-(3-(aminomethyl)phenyl)-1-(cyclopropylmethyl)-1H-indazol-3-yl)methoxy)phenyl)acetic acid] |
| < 1000 | NCc1cccc(-c2ccc3c(c2)c(COc2ccccc2CC(=O)O)nn3C2CCCCC2)c1 [Compound 259c, 2-(2-((5-(3-(aminomethyl)phenyl)-1-cyclohexyl-1H-indazol-3-yl)methoxy)phenyl)acetic acid] |
| < 1000 | NCc1cccc(-c2ccc3c(c2)c(COc2ccccc2CC(=O)O)nn3C2CC2)c1 [Compound 260c, 2-(2-((5-(3-(aminomethyl)phenyl)-1-cyclopropyl-1H-indazol-3-yl)methoxy)phenyl)acetic acid] |
